Data published in US12297193B2, “PTPN2/PTP1B degrader and therapeutic method thereof” (NORTHRIDGE HEALTH GROUP (HONG KONG) CO., LIMITED, priority 2023, dated 2025).
Entries after “also recorded” stand apart in the source; their conditions may differ. Where two headings read alike, the source gives them in different places.

What was measured:
[1] = PK study in SD rats after a single intravenous administration; assay type: in vivo; details: for clearance / concentration at 0.083 h / concentration at 0.25 h / concentration at 0.5 h / concentration at 1 h / concentration at 2 h / concentration at 4 h / concentration at 8 h / concentration at 10 h / concentration at 24 h / AUC(0-t): Sprague-Dawley (SD), rat, plasma; for AUC(0-t): read-out: AUC0-24 h
Experimental: A PK study of the compounds after a single intravenous administration.
SD rats were randomly assigned to 5 groups (3 rats/group). Blood samples were collected from animals at 0.083 h, 0.25 h, 0.5 h, 1 h, 2 h, 4 h, 8 h, 10 h and 24 h after administration. Blood samples were collected in an anticoagulant tube containing EDTA-K2. The concentration of compounds in plasma were determined by an LC-MS/MS method with the lower limit of quantitation (LLOQ) of 0.50 ng/mL. Pharmacokinetic parameters were calculated with WinNonlin to assess the PK characteristics in SD rats. The formulation prescription was DMSO: Cremophor EL: 5% Glucose Solution=5:5:90 (v/v/v).

PTPN2 = molecular target: T1, PTPN2 (Homo sapiens, UniProt P17706); test: Western blot, PTPN2 degradation in HEK293T cells; assay type: cell-based; details: 48 hours incubation; for DC50 / Dmax: Western blot; for DC50: read-out: Relative DC50, PTPN2 degradation; for Dmax: HEK-293T
T1 construct: endogenous in cells; host or cells: HEK293T
T1 sequence (P17706 1-415): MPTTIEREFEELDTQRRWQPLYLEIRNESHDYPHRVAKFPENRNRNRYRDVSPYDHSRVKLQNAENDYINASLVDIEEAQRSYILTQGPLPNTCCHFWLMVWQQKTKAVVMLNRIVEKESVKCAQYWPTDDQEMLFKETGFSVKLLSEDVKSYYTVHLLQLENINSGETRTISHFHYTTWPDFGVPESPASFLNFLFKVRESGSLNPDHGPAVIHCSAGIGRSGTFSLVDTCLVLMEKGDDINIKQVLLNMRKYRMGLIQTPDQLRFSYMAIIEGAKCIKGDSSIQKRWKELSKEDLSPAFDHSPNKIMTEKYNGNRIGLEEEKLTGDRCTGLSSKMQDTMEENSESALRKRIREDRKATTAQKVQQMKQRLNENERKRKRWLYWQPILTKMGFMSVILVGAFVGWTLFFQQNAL
Experimental: (§1) 1. Sample preparation: 150,000 HEK293T cells per well were seeded in a 24-well plate and incubated overnight. Compounds were added to the wells at the final concentrations of 20 μM, 10 μM, 5 μM, 2 μM, 1 μM, 500 nM, 200 nM, 100 nM, 50 nM, 20 nM, 5 nM, 0 nM (solvent control) and medium (negative control) and incubated for 48 hours. After incubation, the supernatants were discarded. Cells were washed with pre-chilled PBS once, 40 μL cell lysis buffer were added to lyse the cells and then centrifuged at 14000 g, 4° C. for 20 mins. The supernatant was aspirated and the protein concentration were quantified. 5× loading buffer was added into the samples, and the samples were heated at 70° C. for 10 minutes.
(§2) 2. Experimental procedure: 20 μg protein were added to each well then start SDS-PAGE electrophoresis. The protein was transferred to the PVDF membrane.
(§3) The blotting current was set at 250 mA for 90 min. 5% BSA in TBST was used to block the membrane for 1 h at room temperature. After diluting the primary antibody according to Table 2, the membrane was hybridized overnight at 4° C. The membrane was washed three times with TBST, 7 minutes each time. After diluting the secondary antibody, the membrane was incubated for 2 h at room temperature. The membrane was washed three times with TBST for 7 min each time.
(§4) ImageJ software was used to detect the gray value of each band and enter it into the following formula as the degradation rate (D): […]
(§5) D is the degradation rate, V refers to the gray value: target refers to the name of the protein targeted for degradation, housekeeping refers to housekeeping proteins such as GAPDH and beta-actin: DMSO refers to the solvent DMSO added only to dissolve PROTAC and incubate cells: Lane X refers to a lane with a specific incubation concentration; Lane Y refers to a lane where only the solvent DMSO is added to incubate cells.
(§6) A graph was drawn with degradation rate as the vertical axis and drug incubation concentration as the horizontal axis, and DC50 and Dmax were read and recorded in Tables 3, 4, 5 and 6.

[2] = test system: HEK293/Luc (IFN-γ) stable cell line; test: Luciferase reporter assay in HEK293/Luc (IFN-γ) cells; assay type: cell-based; details: Homo sapiens; stimulated with 30 ng/mL IFN-γ in HEK293/Luc; 6 h incubation; read-out: Absolute EC50
Experimental: HEK293/Luc (IFN-γ) stable cell line (Cat: M00953) and Fire-Lumi luciferase detection kit (Cat: L00877C) were purchased from GenScript. The complete culture medium formulation was DMEM containing 10% FBS and 1% Penicillin-Streptomycin. For EC50 detection, 60 μL HEK293/Luc (IFN-γ) cells were seeded at the density of 10,000 cells/well into 384 well assay plates (761601, NEST) using the medium above mentioned.
The working solutions for each sample were prepared triplicated at 9 gradient doses, starting from 10 µM and diluted by 4 folds. The IFN-γ working solution was prepared at 0.8 ng/mL concentration. The sample working solution and IFN-γ working solution were mixed at the volume of 1:1, and then 20 μl/well of the aliquot was added into the 384-well plate and cells were incubated at 37° C./5% CO2 for 6 h. 40 μL/well prewarmed detection reagents were added into the cells. Luminescent signals could be determined after 5-minute incubation. The data were plotted and four-parameter fitting was performed on the test data to obtain the relative EC50 value of the curve by Prism GraphPad 9 software (Table 1).

PTP1B = molecular target: T2, PTP1B (Homo sapiens, UniProt P18031); test: Western blot, PTP1B degradation in HEK293T cells; assay type: cell-based; details: 48 hours incubation; for DC50 / Dmax: Western blot; for DC50: read-out: Relative DC50, PTP1B degradation; for Dmax: HEK-293T
T2 construct: endogenous in cells; host or cells: HEK293T
T2 sequence (P18031 1-435): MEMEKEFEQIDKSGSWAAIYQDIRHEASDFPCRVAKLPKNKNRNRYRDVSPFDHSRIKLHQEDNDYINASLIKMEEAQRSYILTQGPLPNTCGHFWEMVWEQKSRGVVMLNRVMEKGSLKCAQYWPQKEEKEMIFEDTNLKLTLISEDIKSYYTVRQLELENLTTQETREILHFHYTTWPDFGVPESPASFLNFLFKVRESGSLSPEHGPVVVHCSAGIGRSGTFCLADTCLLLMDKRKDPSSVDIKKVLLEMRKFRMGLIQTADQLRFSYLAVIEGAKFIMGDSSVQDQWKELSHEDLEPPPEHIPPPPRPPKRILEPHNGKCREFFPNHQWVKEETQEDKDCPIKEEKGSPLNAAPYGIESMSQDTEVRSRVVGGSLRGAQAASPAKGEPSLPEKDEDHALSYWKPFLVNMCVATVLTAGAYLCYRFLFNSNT
Experimental: as §1, §2, §3, §4, §5, §6

SMILES | clearance ([1]; 1 mg/kg) | concentration at 0.083 h ([1]; 1 mg/kg) | concentration at 0.25 h ([1]; 1 mg/kg) | concentration at 0.5 h ([1]; 1 mg/kg) | concentration at 1 h ([1]; 1 mg/kg) | concentration at 2 h ([1]; 1 mg/kg) | concentration at 4 h ([1]; 1 mg/kg) | concentration at 8 h ([1]; 1 mg/kg) | concentration at 10 h ([1]; 1 mg/kg) | concentration at 24 h ([1]; 1 mg/kg, 24 h) | AUC(0-t) ([1]; 1 mg/kg) | DC50 (PTPN2) | Dmax (PTPN2) | further results
O=C(O)COc1c(C(=O)O)sc(-c2cccc(NC3CCN(S(=O)(=O)Cc4ccc5oc(N6CCC(c7ccc8c9c(cccc79)C(=O)N8C7CCC(=O)NC7=O)CC6)nc5c4)CC3)c2)c1Cl (stereo not shown) [Compound 23] | 0.684 mL/min/kg | 21700 ng/mL | 17900 ng/mL | 12600 ng/mL | 7110 ng/mL | 2420 ng/mL | 525 ng/mL | 110 ng/mL | 95.1 ng/mL | 39.6 ng/mL | 24700 ng·h/mL | – | – | –
CC1(C)CC(Nc2cccc(-c3sc(C(=O)O)c(OC(F)(F)C(=O)O)c3Cl)c2)CCN1S(=O)(=O)Cc1ccc2oc(N3CCC(c4ccc5c6c(cccc46)C(=O)N5C4CCC(=O)NC4=O)CC3)nc2c1 (stereo not shown) [Compound 78] | – | – | – | – | – | – | – | – | – | – | – | 55.2 nM | 100% | –
[2H]C([2H])(c1ccc2oc(N3CCC(c4ccc5c6c(cccc46)C(=O)N5C4CCC(=O)NC4=O)CC3)nc2c1)S(=O)(=O)N1CCC(Nc2cccc(-c3sc(C(=O)O)c(OCC(=O)O)c3Cl)c2)CC1(C)C (stereo not shown) [Compound 151] | 0.568 mL/min/kg | 19400 ng/mL | 14900 ng/mL | 11500 ng/mL | 7920 ng/mL | 3810 ng/mL | 1050 ng/mL | 345 ng/mL | 279 ng/mL | 57.5 ng/mL | 29700 ng·h/mL | – | – | –

More lines, in order of falling DC50 (PTPN2), values ahead:

clearance ([1]; 1 mg/kg) | concentration at 0.083 h ([1]; 1 mg/kg) | concentration at 0.25 h ([1]; 1 mg/kg) | concentration at 0.5 h ([1]; 1 mg/kg) | concentration at 1 h ([1]; 1 mg/kg) | concentration at 2 h ([1]; 1 mg/kg) | concentration at 4 h ([1]; 1 mg/kg) | concentration at 8 h ([1]; 1 mg/kg) | concentration at 10 h ([1]; 1 mg/kg) | concentration at 24 h ([1]; 1 mg/kg, 24 h) | AUC(0-t) ([1]; 1 mg/kg) | DC50 (PTPN2) | Dmax (PTPN2) | SMILES | further results
0.351 mL/min/kg | 21900 ng/mL | 17000 ng/mL | 13200 ng/mL | 8730 ng/mL | 5430 ng/mL | 2870 ng/mL | 1090 ng/mL | 809 ng/mL | 206 ng/mL | 48700 ng·h/mL | 51.2 nM | 97.2% | O=C(O)COc1c(C(=O)O)sc(-c2cccc(NC3CCN(S(=O)(=O)Cc4ccc5oc(N6CCC(c7ccc8c9c(cccc79)C(=O)N8C7CCC(=O)NC7=O)CC6)nc5c4)C4(CC4)C3)c2)c1Cl (stereo not shown) [Compound 57] | –
– | – | – | – | – | – | – | – | – | – | – | 38.8 nM | 96.5% | CC1(C)CC(Nc2cccc(-c3sc(C(=O)O)c(OCC(=O)O)c3Cl)c2)CCN1S(=O)(=O)Cc1ccc2cnc(N3CCC(c4ccc5c6c(cccc46)C(=O)N5C4CCC(=O)NC4=O)CC3)nc2c1 (stereo not shown) [Compound 16] | –
– | – | – | – | – | – | – | – | – | – | – | 29.3 nM | 96.3% | CC1(C)C[C@@H](Nc2cccc(-c3sc(C(=O)O)c(OCC(=O)O)c3Cl)c2)CCN1S(=O)(=O)Cc1cccc(NC(=O)N2CCC(c3ccc4c5c(cccc35)C(=O)N4[C@H]3CCC(=O)NC3=O)CC2)c1 [Ref. Cpd, reference compound] | EC50 [2]: 473 nM; DC50 (PTP1B): 271 nM; Dmax (PTP1B): 96.8%; Plasma concentration ([1]; 2 mg/kg, 24 h, LLOQ 0.50 ng/mL): BLOQ; clearance ([1]; 2 mg/kg): 4.46 mL/min/kg; concentration at 0.083 h ([1]; 2 mg/kg): 22700 ng/mL; concentration at 0.25 h ([1]; 2 mg/kg): 8300 ng/mL; concentration at 0.5 h ([1]; 2 mg/kg): 1290 ng/mL; concentration at 1 h ([1]; 2 mg/kg): 318 ng/mL; concentration at 2 h ([1]; 2 mg/kg): 148 ng/mL; concentration at 4 h ([1]; 2 mg/kg): 79.4 ng/mL; concentration at 8 h ([1]; 2 mg/kg): 29.3 ng/mL; concentration at 10 h ([1]; 2 mg/kg): 18.9 ng/mL; AUC(0-t) ([1]; 2 mg/kg): 7490 ng·h/mL
0.661 mL/min/kg | 18100 ng/mL | 14600 ng/mL | 9660 ng/mL | 5980 ng/mL | 2890 ng/mL | 1000 ng/mL | 372 ng/mL | 321 ng/mL | 98.6 ng/mL | 27200 ng·h/mL | 10.1 nM | 100% | CC1(C)CC(Nc2cccc(-c3sc(C(=O)O)c(OCC(=O)O)c3Cl)c2)CCN1S(=O)(=O)Cc1ccc2oc(N3CCC(c4ccc5c6c(cccc46)C(=O)N5C4CCC(=O)NC4=O)CC3)nc2c1 (stereo not shown) [Compound 21] | EC50 [2]: 48 nM; Degradation ability on PTPN2 protein at different concentrations (FIG. 1), in words (PTPN2; 5 nM to 20 μM): good degradation ability on PTPN2 protein in a dose-dependent manner; also recorded: completely degraded at high concentrations; Effect on PTP1B compared with PTPN2 at the same concentration (selectivity, FIG. 1), in words (PTP1B): the degradation ability of PTPN2 is better than that of PTP1B; also recorded: much weaker than that of PTPN2; DC50 (PTP1B): 861 nM; Dmax (PTP1B): 97.3%
